Like-named read-outs stand apart in the source and are kept apart here.
Key:
[1] = system: children with ADHD; assay: Experiment 9: EEG and ERP; assay type: in vivo, human
Experimental: EEG and behavioral data were collected while the children performed low load and high load versions of the spatial WM task described above. […] Participants were tested on each of three occasions at the same time of day with a week between sessions. The first occasion was an orientation and training session in which subjects learned and practiced the tasks until performance reached asymptote. On the other occasions they were tested either while medicated or while abstaining from their normal dose of medication, with order of treatment counterbalanced across subjects. A scientist not otherwise involved with the study maintained the schedule of medication and no-medication days so that the research assistant performing the testing and preliminary analyses was blind to medication status. Data from the orientation day was not included in formal analyses. On the other days subjects first performed a single 23-trial block of each of the task conditions as a warm-up procedure. They then performed 4 more 23-trial blocks of each test version in randomized order. […]
In each session, multi-channel EEG was recorded from multiple “10-10 System” scalp locations (bandpass 0.1-100 Hz, 256 Hz sampling rate, linked mastoid reference) using a custom-made electrode cap. EOG was recorded from above and below the left eye, and from outer canthus of each eye. […]

[2] = system: children with ADHD; assay: Experiment 9: spatial WM task performance; assay type: in vivo, human; conditions: medicated vs unmedicated state; Dexedrine 20 mg, methylphenidate 10 mg
Description: Experiment. Participants (a total of N=14, evenly divided between boys and girls) were referred to this study by local ADHD specialists. All participants had been diagnosed with the combined subtype of ADHD and were currently undergoing treatment with stimulant medication. Inclusion criteria include age 8-12 years, no mental retardation or neurological impairment, and full-scale IQ in the normal range as measured by the WISC-III (Wechsler, 1991). Participants were paid $10/hour for their participation, and were reimbursed for transportation costs. To increase motivation, the children were also rewarded with toys for good performance.
EEG and behavioral data were collected while the children performed low load and high load versions of the spatial WM task described above. […] Participants were tested on each of three occasions at the same time of day with a week between sessions. The first occasion was an orientation and training session in which subjects learned and practiced the tasks until performance reached asymptote. On the other occasions they were tested either while medicated or while abstaining from their normal dose of medication, with order of treatment counterbalanced across subjects. […]

[3] = system: healthy adults; conditions: for Delta band power during resting conditions vs placebo / Theta band power during resting conditions vs placebo: both resting conditions; for Parietal alpha during task performance vs placebo: both task conditions
Experimental: (§1) Each drug session involved a baseline recording before drug administration. This was followed by four post-drug recording intervals, each lasting approximately 40 minutes. The first interval began 0.5 hrs after drug ingestion; the remaining three intervals occurred hourly thereafter. A scientist not otherwise involved in the experiment administered a Breathalyzer test at the beginning of each interval. Subjects also completed the Karolinska and Stanford sleepiness scales at each test period.
(§2) EEG was continuously recorded from 28 scalp electrodes using a digitally linked-mastoids reference. EOG was recorded from electrodes placed above and below one eye, and at the other canthi of each eye. Physiological signals were band-pass filtered at 0.01 to 100 Hz and sampled at 256 Hz. Automated artifact detection was followed by application of adaptive eye contaminant removal filters. The data were then visually inspected and data segments containing possible residual artifacts were eliminated from subsequent analyses. To examine the effects of the pharmacological interventions on individual EEG or behavioral variables, univariate repeated measures analyses of variance (ANOVAs) were used to compare data from each of the three treatment conditions with the placebo condition.
For neurophysiological features, average power was extracted from individual spectral bands at individual electrode sites, and then compared across test conditions. Decisions as to which parameters to extract from the spectra were based on the results of prior studies. For the task related EEG, past studies indicate that the frontal midline theta rhythm and the parietal alpha rhythm are sensitive to variations in the attentional demands of tasks, and, in particular, to the increase in difficulty in the working memory tasks employed here. For the EEG recorded under passive resting conditions, past studies indicate that activity in the delta and theta bands at posterior sites, and the alpha rhythm measured over the occipital region, are highly sensitive to variations in alertness and arousal. Each of the individual features was compared between placebo and each drug condition in univariate ANOVAs with repeated measures.

[4] = system: healthy adults; assay: Experiment 1: subjective sleepiness ratings (Karolinska Sleepiness Scale); assay type: in vivo, human; conditions: 50 mg diphenhydramine, 200-mg caffeine or 0.88 g/kg ethanol, four post-treatment intervals
Experimental: (§3) Each subject participated in […] sessions. The first session was a practice session in which subjects learned to perform the working memory tasks. After training, all subjects participated in 4 sessions, separated by at least one week. […] The four drug sessions were conducted according to a double blind, placebo-controlled, randomized, counterbalanced, crossover design. In each session, subjects consumed two pills (unmarked gelatin capsules) and a mixed drink. […] The pills were given with a 500 cc drink containing either 0.88 g/kg 95% ethanol mixed in fruit juice (adequate to produce an average peak blood alcohol content (BAC) of 0.08), or containing 495 cc of fruit juice with 5 cc of alcohol floated on top to mimic the smell and taste of the treatment drink.
as §1

[5] = average
Experimental: as §3, §1

[6] = system: healthy adults; assay: Experiment 2: Neurocognitive Function Change (NCFC) index; assay type: in vivo, human; conditions: for NCFC index change from pre-medication baseline: 16 subjects, t1-t4
Description: In this hybrid approach, multiple if-then rules gleaned from expert knowledge are applied to data to produce many low-level decisions about the direction of a change between two states. These local decisions are made with respect to single data parameters and the output of these rule-based functions serve as the inputs to a combinatorial network that in turn produces a single summary index of the direction and magnitude of change of neurocognitive function from a baseline state to a test state. As with a knowledgeable human expert assessing an ambiguous problem, decisions about the direction and severity of a change are based on consideration of a variety of pieces of diagnostic evidence, no one of which is central to the overall decision.
The output from the algorithm is the composite of three sub indices. The Behavioral Performance sub index incorporates measures of psychomotor speed and accuracy during task performance. The Neurophysiological Cognitive sub index incorporates attention-related EEG variables recorded during task performance (e.g. parameters of attention-related ERP components such as P300 and spectral measures of task load-related EEG modulation). The Neurophysiological Alertness sub index incorporates alertness-related physiological variables (e.g. measures of low frequency EEG activity and slow, rolling eye movement activity) recorded during passive resting conditions. The composite Neurocognitive Function Change (NCFC) index provides a summary score indicating direction and degree of change in neurocognitive status from a baseline state. In FIG. 6, each time point reflects change from the pre-medication baseline at t0 . […] In addition to the summary NCFC score presented in FIG. 6, consideration of the output of the sub indices can also provide specific information concerning the manner in which neurocognitive function has changed from baseline. […]

[7] = system: healthy adults; assay: Experiment 1: n-back working memory task performance; assay type: in vivo, human; conditions: for Accuracy in working memory task vs placebo / Reaction time in working memory task vs placebo: low load and high load tasks
Description: Subjects performed two difficulty levels of a continuous performance, n-back working memory task, versions of which we have employed in many other EEG studies. In this task, subjects were required to compare the spatial location of the current stimulus with that of one presented previously. Briefly, single capital letter stimuli, drawn randomly from a set of twelve, were presented for 200 msec once every 4.5 sec on a computer monitor. At 1.3 sec prior to stimulus onset, a warning cue (a small “x”) appeared in the center of the screen for 200 msec. The letter stimulus occurred 1.3 sec after the cue in one of twelve possible locations on the monitor. The identity of the letter and its spatial position varied randomly from trial to trial. A small fixation dot was continuously present at the center of the screen. In a low load version of the task, subjects were required to match the position of the current stimulus with the position of the very first stimulus presented in the block. In a high load version of the task, subjects compared the current stimulus with that presented two trials previously. In this version subjects were required to remember two positions (and their sequential order) for the duration of two trials (nine seconds), and to update that information on each subsequent trial. In both versions of the task, stimuli were presented in blocks of 53 trials (the first three trials were warm-up trials and were discarded from analysis). Matches occurred randomly on 50% of the trials. Subjects were instructed to respond as quickly and as accurately as possible.
as §3, §1, §2

[8] = system: healthy elderly subjects; assay: Experiment 8: WM and ITM task performance in elderly; assay type: in vivo, human
[9] = system: healthy elderly subjects; assay: Experiment 8: subjective sleepiness in elderly (Karolinska sleepiness scale)
[10] = system: healthy elderly subjects; assay: Experiment 8: resting and task-related EEG and ERP in elderly; assay type: in vivo, human

SMILES | Working memory task performance in an individual subject [2] | Frontal midline theta rhythm during task performance vs placebo [3] | Direction of significant (p < .05) change in spectral power (vs. placebo): Oz alpha ([3]; Resting EEG Eyes Closed) | Direction of significant (p < .05) change in spectral power (vs. placebo): Pz delta ([3]; Resting EEG Eyes Closed) | Direction of significant (p < .05) change in spectral power (vs. placebo): Pz theta ([3]; Resting EEG Eyes Closed) | Direction of significant (p < .05) change in spectral power (vs. placebo): Oz alpha ([3]; Resting EEG Eyes Open) | Direction of significant (p < .05) change in spectral power (vs. placebo): Pz delta ([3]; Resting EEG Eyes Open) | Direction of significant (p < .05) change in spectral power (vs. placebo): Pz theta ([3]; Resting EEG Eyes Open) | Direction of significant (p < .05) change in spectral power (vs. placebo): Pz alpha ([3]; Task EEG High Load) | Direction of significant (p < .05) change in spectral power (vs. placebo): aFz theta ([3]; Task EEG High Load) | Direction of significant (p < .05) change in spectral power (vs. placebo): Pz alpha ([3]; Task EEG Low Load) | Direction of significant (p < .05) change in spectral power (vs. placebo): aFz theta ([3]; Task EEG Low Load) | Delta band power during resting conditions vs placebo [3] | Theta band power during resting conditions vs placebo [3] | Parietal alpha during task performance vs placebo [3] | Subjective sleepiness relative to placebo [4] | NCFC index change from pre-medication baseline [6] | Accuracy in working memory task vs placebo [7] | Reaction time in working memory task vs placebo [7] | also measured
C[C@H](N)Cc1ccccc1 [Dexedrine] | markedly better in the medicated state |  |  |  |  |  |  |  |  |  |  |  |  |  |  |  |  |  |  | Alpha rhythm, high load vs low load, in an individual subject ([1]; Dexedrine 20 mg): larger difficulty-related differences
CCO [alcohol, ethanol] |  | increased in the amplitude | ▬ | ▴ | ▴ | ▬ | ▴ | ▴ | ▴ | ▴ | ▴ | ▴ | increased the power | increased the power | increased in the amplitude | significant increase in subjective sleepiness relative to placebo at the 1.5-2 hr, 2.5-3 hr and 3.5-4 hr post-treatment intervals | similar, though less extreme, pattern of impairment | no significant main effects | slightly faster in the high load task, and slightly slower in the low load task | peak BAC ([5]; first post-treatment interval): 0.08; BAC ([5]; last post-treatment interval): 0.03; NCFC sub index most affected ([6]; in vivo): relative greater effect on the Neurophysiological Attention sub index
Cn1c(=O)c2c(ncn2C)n(C)c1=O [caffeine] |  |  | ▬ | ▬ | ▬ | ▬ | ▬ | ▬ | ▾ | ▬ | ▾ | ▬ |  |  | significant reduction in alpha band power at parietal sites | did not produce subjective sleepiness ratings significantly different from placebo | little change from baseline | No significant behavioral differences | No significant behavioral differences | Resting EEG data relative to placebo [3]: did not produce significant differences in resting EEG data relative to placebo
CN(C)CCOC(c1ccccc1)c1ccccc1 [diphenhydramine] |  | reduction in power for the frontal midline theta rhythm in the high load task only |  |  |  |  |  |  |  |  |  |  | increase in power in the delta | trend towards increasing |  |  |  | less accurately | significantly more slowly | Alpha band power, eyes-closed resting condition vs placebo [3]: attenuation of power in the alpha band in the eyes-closed resting condition; Alpha band power, eyes-open resting condition vs placebo [3]: no significant change in power during the eyes-open resting condition; Slow eye movement activity during resting conditions ([3]; discussion): increase in the incidence of slow eye movement activity; Time of nadir of task performance ([7]; post drug, third post-ingestion interval): 2.5 to 3 h; ITM task RT and word recognition accuracy [8]: did not show significant effects of diphenhydramine; WM task performance [8]: did not significantly affect task performance; Time of greatest subjective sleepiness ([9]; after ingestion): 2.5 h; Subjective sleepiness vs placebo ([9]; elderly, 50 mg): significantly sleepier; Amplitude of posterior P200 in ITM task [10]: larger after diphenhydramine ingestion than after placebo ingestion; N160 and P350 ERP in WM task ([10]; low and high load tasks): significantly smaller following diphenhydramine ingestion than placebo; Resting EEG delta and theta power ([10]; posterior regions): increase in power in the delta and theta bands over posterior regions
COC(=O)C(c1ccccc1)C1CCCCN1 (stereo not drawn) [methylphenidate] | markedly better in the medicated state |  |  |  |  |  |  |  |  |  |  |  |  |  |  |  |  |  |  | P300 amplitude in an individual subject ([1]; methylphenidate 10 mg): larger in the medicated condition

Source: patent publication US6947790B2, “Neurocognitive function EEG measurement method and system” (priority 2000, dated 2005)
